{
  "source": "paper PMC9356076",
  "about": "“An Integrated Pharmacological Counselling Approach to Guide Decision-Making in the Treatment with CDK4/6 Inhibitors for Metastatic Breast Cancer” (Frontiers in Pharmacology, 2022)",
  "key": {"P-glycoprotein (P-gp)": {"tested_on": "P-glycoprotein (P-gp)", "details": "background statement, no reference given; cited from earlier work"}, "[1]": {"tested_on": "breast cancer resistance protein (BCRP)", "details": "background statement, no reference given; cited from earlier work"}, "clinical": {"assay": "clinical", "details": "human", "method": "(§2) Plasma was obtained by centrifugation at 2,450 g for 10 min at 4°C of whole blood EDTA tubes and stored at −80°C until analysis. Patients’ samples were analyzed with a newly developed LC-MS/MS method as previously reported ([Posocco et al., 2020]). Drug concentration was usually evaluated at specific time points, which allowed the evaluation of Cmin or Cmax at steady state. […] Last administration (self-reported) and sampling times were also recorded. According to the literature ([Verheijen et al., 2017]), the average exposure of the approved efficacious dose was used as a proxy of target Cmin and will be referred to as “target Cmin” in this article.\n(§3) Descriptive statistics were used to present and analyze the TDM data. The mean population Cmin value reported in the literature for patients treated with the standard dose was used to evaluate the TDM target, and the ±20% intervals were calculated. This interval was based on acceptable variability of analytical data according to incurred sample reanalysis criteria ([FDA, 2018]; [EMA, 2022]). Patients who fell outside this range were considered to be potentially under or overexposed to the drugs."}, "[2]": {"details": "cited from earlier work"}, "UGT": {"tested_on": "UGT", "details": "background statement, no reference given; cited from earlier work"}, "[3]": {"tested_on": "HR-positive/HER2-negative MBC patients", "assay": "Patient's clinical outcome of CDKi treatment for metastatic breast cancer", "format": "in vivo, human", "text": "(§1) Our counselling service was already available for other KI used in oncology as imatinib, sorafenib, regorafenib, sunitinib, lenvatinib, and three PARP inhibitors: olaparib, niraparib, and rucaparib. Written informed consent was obtained for pharmacogenetic and TDM analyses and the publication of the here presented reports. Any potentially identifying information was omitted. Data concerning age, disease, stage, and molecular profiling, treatment regimen and setting, drug dose, adverse drug reactions, and coadministered treatments were retrieved from the electronic medical record upon patients’ reporting by the prescribing medical oncologist. Toxicities were retrospectively collected through clinical records revision and graded according to Common Terminology Criteria for Adverse Events (CTCAE) Version 5.0."}, "[4]": {"tested_on": "HR-positive/HER2-negative MBC patients", "assay": "Adverse drug reactions in treated patients, graded by CTCAE Version 5.0", "format": "in vivo, human", "details": "palbociclib 100 mg/day", "text": "as §1"}, "[5]": {"assay": "Therapeutic drug monitoring: steady-state plasma concentration in patients by LC-MS/MS", "method": "as §2, §3"}},
  "data": [
    {"smiles": "CN(C)C(=O)c1cc2cnc(Nc3ccc(N4CCNCC4)cn3)nc2n1C1CCCC1", "note": "[ribociclib]", "values": [
      {"measurement": "substrate of the efflux transporter P-gp", "setting": "P-glycoprotein (P-gp)", "result": "substrate"},
      {"measurement": "substrate of / transport by BCRP", "setting": "[1]", "result": "no noticeable transport"},
      {"measurement": "concentration at 24 h", "setting": "clinical; in vivo", "result": "586 to 878", "unit": "ng/mL"},
      {"measurement": "reported mean Cmin (target population Cmin)", "setting": "[2]; ribociclib standard dose 600 mg/day, ref FDA, 2021b", "result": 732, "unit": "ng/mL"},
      {"measurement": "mean steady-state population Cmax", "setting": "[2]; ribociclib", "result": "2,237 ng/ml"},
      {"measurement": "glucuronidation reaction by UGT", "setting": "UGT", "result": "undergo a glucuronidation reaction"},
      {"measurement": "Patient's clinical outcome", "setting": "[3]; Case III, ribociclib 600 mg/day reduced to 400 mg and then 200 mg, I line", "result": "disease progression"},
      {"measurement": "Patient's clinical outcome", "setting": "[3]; Case III, ribociclib 600 mg/day reduced to 400 mg and then 200 mg, I line, listed as Ribociclib", "result": "The dose of ribociclib was reduced after more than 1 year of intermittent treatment due to toxicity. Ribociclib treatment ultimately failed"}
    ]},
    {"smiles": "CCN1CCN(Cc2ccc(Nc3ncc(F)c(-c4cc(F)c5nc(C)n(C(C)C)c5c4)n3)nc2)CC1", "note": "[abemaciclib]", "values": [
      {"measurement": "substrate of the efflux transporter P-gp", "setting": "P-glycoprotein (P-gp)", "result": "substrates"},
      {"measurement": "substrate of / transport by BCRP", "setting": "[1]", "result": "substrates"},
      {"measurement": "proposed target Cmin", "setting": "[2]; abemaciclib, MONARCH 3 patients, 132 mg/twice day, ref US Food and Drug Administration, 2017b", "result": 181, "unit": "ng/mL"}
    ]},
    {"smiles": "N#Cc1ccc(C(c2ccc(C#N)cc2)n2cncn2)cc1", "note": "[letrozole]", "values": [
      {"measurement": "proposed Cmin target value", "setting": "[2]; letrozole, dedicated exposure-efficacy studies, ref FDA, 2021a", "result": 85.6, "unit": "ng/mL"}
    ]},
    {"smiles": "CC(=O)c1c(C)c2cnc(Nc3ccc(N4CCNCC4)cn3)nc2n(C2CCCC2)c1=O", "note": "[palbociclib]", "values": [
      {"measurement": "concentration at 24 h", "setting": "clinical; plasma, oral", "result": "49 to 73", "unit": "ng/mL"},
      {"measurement": "neutropenia grade after dose reduction", "setting": "[4]; Case II", "result": "grade 4"},
      {"measurement": "neutropenia grade after dose reduction", "setting": "[4]; Case V", "result": "grade 3"},
      {"measurement": "Patient's clinical outcome", "setting": "[3]; Case I, palbociclib 75 mg/day + fulvestrant, II line", "result": "systemic PD"},
      {"measurement": "Patient's clinical outcome", "setting": "[3]; Case I, palbociclib 75 mg/day + fulvestrant, II line, listed as Palbociclib", "result": "Palbociclib treatment failure due to disease progression"},
      {"measurement": "Cmin (minimum plasma concentration)", "setting": "[5]; Case I, palbociclib 75 mg/day + fulvestrant, steady state, 24 h after last intake", "result": "27.3 ng/ml (palbociclib 75 mg/day)"},
      {"measurement": "Cmin", "setting": "[5]; Case II, after dose reduction to palbociclib 100 mg/day", "result": 62.3, "unit": "ng/mL"},
      {"measurement": "concentration at 24 h", "setting": "[5]; human, plasma, oral, 100 mg/day", "result": 62.3, "unit": "ng/mL"}
    ]}
  ]
}
